Measured values: paper PMC5971037, “Synthesis and evaluation of antimicrobial, antitubercular and anticancer activities of 2-(1-benzoyl-1H-benzo[d]imidazol-2-ylthio)-N-substituted acetamides” (Chemistry Central Journal, 2018)
≈ marks a conversion by molar mass, not a printed value.

How the values were obtained:
S. aureus [1] = experiment: Tube dilution MIC; conditions: Staphylococcus aureus, 24 h, read-out: MIC S. aureus
S. typhi [2] = experiment: Tube dilution MIC; type: cell-based; conditions: Salmonella enterica, 24 h, read-out: MIC S. typhi
M. tuberculosis H37Rv [3] = experiment: MIC by microplate alamar blue assay; type: cell-based; conditions: Mycobacterium tuberculosis, NA = no activity, read-out: MIC against M. tuberculosis H37Rv
[4] = system: MCF7 (human breast cancer) cell line; experiment: Sulforhodamine-B (SRB) cytotoxicity assay; type: cell-based; conditions: MCF7, read-out: IC50 MCF7
A. niger [5] = experiment: microbe, parasite or virus in culture; conditions: Aspergillus niger, 168 h, read-out: MIC A. niger
[6] = system: M. tuberculosis H37Rv (NCFT/TB/537); experiment: Well diffusion susceptibility test (zone of inhibition); type: cell-based; conditions: Mycobacterium tuberculosis, 672 h, read-out: Diameter of zone of inhibition against H37Rv (NCFT/TB/537), wells of 8 mm, 50 µg/ml test compound, 25 µg/ml standard drug, 4 weeks, NA = no activity
E. coli [7] = experiment: Tube dilution MIC; conditions: Escherichia coli, 24 h, read-out: MIC E. coli
B. cereus [8] = experiment: Tube dilution MIC; conditions: Bacillus cereus, 24 h, read-out: MIC B. cereus
A. niger [9] = experiment: MFC by subculturing; type: cell-based; conditions: Aspergillus niger, read-out: MFC A. niger
Experimental: (§1) The minimum bactericidal concentration (MBC) and minimum fungicidal concentration (MFC) of the synthesized benzimidazole derivatives was determined by subculturing 100 µl of culture from each tube that remained clear in MIC determination onto sterilized petri-plates containing fresh agar medium. The petri-plates were incubated and analyzed for microbial growth visually.

C. albicans [10] = experiment: MFC by subculturing; type: cell-based; conditions: Candida albicans, read-out: MFC C. albicans
Experimental: as §1

[11] = molecular target: mycobacterial isocitrate lyase (Mycobacterium tuberculosis, UniProt P9WKK7); experiment: Mycobacterial isocitrate lyase (ICL) assay; type: biochemical, M. tuberculosis H37Rv; conditions: read-out: Percent inhibition of enzyme, M. ICL activity
mycobacterial isocitrate lyase, sequence (P9WKK7 whole entry): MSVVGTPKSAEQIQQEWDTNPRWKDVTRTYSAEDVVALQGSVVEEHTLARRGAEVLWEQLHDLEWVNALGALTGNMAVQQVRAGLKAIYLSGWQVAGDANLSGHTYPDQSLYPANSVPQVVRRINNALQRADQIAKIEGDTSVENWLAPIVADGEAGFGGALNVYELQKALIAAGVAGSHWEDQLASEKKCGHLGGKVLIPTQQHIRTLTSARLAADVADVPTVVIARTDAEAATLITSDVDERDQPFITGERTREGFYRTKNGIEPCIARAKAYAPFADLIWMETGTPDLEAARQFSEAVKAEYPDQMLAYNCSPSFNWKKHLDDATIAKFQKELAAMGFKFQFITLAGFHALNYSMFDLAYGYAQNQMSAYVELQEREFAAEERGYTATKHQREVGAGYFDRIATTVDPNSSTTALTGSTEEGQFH
Experimental: The compounds found potent in in vivo evaluation were assayed for inhibition of mycobacterial enzymes viz., isocitrate lyase, pantothenate synthetase and chorismate mutase.
Isocitrate lyase activity was assayed according to the protocol reported by Dixon and Kornberg (glyoxylate phenyl hydrazone formation) at 10 μM of the compounds.

M. tuberculosis H37Rv [12] = experiment: Minimum lethal concentration (MLC); type: cell-based; conditions: Mycobacterium tuberculosis, NA = no activity, read-out: MLC against M. tuberculosis H37Rv
B. cereus [13] = experiment: MBC by subculturing; type: cell-based; conditions: Bacillus cereus, read-out: MBC B. cereus
Experimental: as §1

S. aureus [14] = experiment: MBC by subculturing; type: cell-based; conditions: Staphylococcus aureus
Experimental: as §1

B. subtilis [15] = experiment: MBC by subculturing; type: cell-based; conditions: Bacillus subtilis, read-out: MBC B. subtilis
Experimental: as §1

S. typhi [16] = experiment: MBC by subculturing; type: cell-based; conditions: Salmonella enterica, read-out: MBC S. typhi
Experimental: as §1

E. coli [17] = experiment: MBC by subculturing; type: cell-based; conditions: Escherichia coli
Experimental: as §1

B. subtilis [18] = experiment: Tube dilution MIC; conditions: Bacillus subtilis, 24 h, read-out: MIC B. subtilis
[19] = In vivo LD50, ED50 and toxic dose in mice models; conditions: mouse, dose that killed 50% of the mice population within the group
Experimental: The LD50 and ED50 were determined for the active compounds in mice models infected with Mycobacterium H37Rv (Table 4). […] Thus, ED50 of 1.34 mg/kg was considered safe for each of the compounds. It was observed that this dose was effective and safe for mice in different groups before infecting the mice models with specific TB bacteria as no mortality of any single animal was recorded.
The LD50 (lethal dose) and ED50 (optimum/effective dose) doses were determined for the active compounds in mice models infected with Mycobacterium H37Rv via ethical permission no., NCFT/EC/16/2313 assigned to Collaborative Research Group (CRG), NCFT, New Delhi, India.

[20] = system: HCT116 (human colorectal) cell line; experiment: Sulforhodamine-B (SRB) cytotoxicity assay; type: cell-based; conditions: HCT-116, read-out: IC50 HCT116
C. albicans [21] = experiment: microbe, parasite or virus in culture; conditions: Candida albicans, 48 h, read-out: MIC C. albicans

Compound	MIC (S. aureus [1])	MIC (S. typhi [2])	MIC (M. tuberculosis H37Rv [3])	IC50 [4]	MIC (A. niger [5])	zone of inhibition at 50 µg/mL [6]	MIC (E. coli [7])	MIC (B. cereus [8])	MFC (A. niger [9])	MFC (C. albicans [10])	inhibition at 10 µM [11]	MBC (M. tuberculosis H37Rv [12])	MBC (B. cereus [13])	MBC (S. aureus [14])	MBC (B. subtilis [15])	MBC (S. typhi [16])	MBC (E. coli [17])	MIC (B. subtilis [18])	LD50 [19]	MIC (C. albicans [21])	other results
O=C(CSc1nc2ccccc2n1C(=O)c1ccccc1)Nc1ccccc1 [Compound 1]	32 µM (≈ 12.4 µg/mL)	32 µM (≈ 12.4 µg/mL)	12.5 µg/mL (≈ 32.3 µM)	77.4 µM	32 µM (≈ 12.4 µg/mL)	> 20 mm	32 µM (≈ 12.4 µg/mL)	32 µM (≈ 12.4 µg/mL)	> 50 µg/mL	50 µg/mL (≈ 129 µM)	62.2%	25 µg/mL (≈ 64.5 µM)	> 50 µg/mL	50 µg/mL (≈ 129 µM)	> 50 µg/mL	50 µg/mL (≈ 129 µM)	50 µg/mL (≈ 129 µM)	32 µM (≈ 12.4 µg/mL)	1.83 mg/kg	32 µM (≈ 12.4 µg/mL)	IC50 [20]: > 258 µM
Cc1cccc(C)c1NC(=O)CSc1nc2ccccc2n1C(=O)c1ccccc1 [Compound 13, 2-(1-Benzoyl-1H-benzo[d]imidazol-2-ylthio)-N-(2,6-dimethylphenyl)acetamide]	30 µM (≈ 12.5 µg/mL)	30 µM (≈ 12.5 µg/mL)	12.5 µg/mL (≈ 30.1 µM)	135 µM	30 µM (≈ 12.5 µg/mL)	> 20 mm	30 µM (≈ 12.5 µg/mL)	30 µM (≈ 12.5 µg/mL)	> 50 µg/mL	25 µg/mL (≈ 60.2 µM)	56.5%	25 µg/mL (≈ 60.2 µM)	> 50 µg/mL	50 µg/mL (≈ 120 µM)	> 50 µg/mL	> 50 µg/mL	50 µg/mL (≈ 120 µM)	30 µM (≈ 12.5 µg/mL)	2.14 mg/kg	15 µM (≈ 6.23 µg/mL)	IC50 [20]: 96.3 µM
O=C(CSc1nc2ccccc2n1C(=O)c1ccccc1)Nc1ccccc1F [Compound 2, 2-(1-Benzoyl-1H-benzo[d]imidazol-2-ylthio)-N-(2-fluorophenyl)acetamide]	31 µM (≈ 12.6 µg/mL)	31 µM (≈ 12.6 µg/mL)	12.5 µg/mL (≈ 30.8 µM)	4.7 µM	31 µM (≈ 12.6 µg/mL)	> 20 mm	31 µM (≈ 12.6 µg/mL)	31 µM (≈ 12.6 µg/mL)	> 50 µg/mL	50 µg/mL (≈ 123 µM)	58.8%	25 µg/mL (≈ 61.7 µM)	> 50 µg/mL	> 50 µg/mL	50 µg/mL (≈ 123 µM)	50 µg/mL (≈ 123 µM)	50 µg/mL (≈ 123 µM)	31 µM (≈ 12.6 µg/mL)	1.81 mg/kg	15 µM (≈ 6.08 µg/mL)	IC50 [20]: 83.9 µM
O=C(CSc1nc2ccccc2n1C(=O)c1ccccc1)Nc1ccc(Cl)cc1 [Compound 15, 2-(1-Benzoyl-1H-benzo[d]imidazol-2-ylthio)-N-(4-chlorophenyl)acetamide]	30 µM (≈ 12.7 µg/mL)	59 µM (≈ 24.9 µg/mL)	12.5 µg/mL (≈ 29.6 µM)	95 µM	30 µM (≈ 12.7 µg/mL)	> 20 mm	30 µM (≈ 12.7 µg/mL)	30 µM (≈ 12.7 µg/mL)	> 50 µg/mL	> 50 µg/mL	61.6%	25 µg/mL (≈ 59.3 µM)	> 50 µg/mL	50 µg/mL (≈ 119 µM)	> 50 µg/mL	> 50 µg/mL	50 µg/mL (≈ 119 µM)	30 µM (≈ 12.7 µg/mL)	2.67 mg/kg	30 µM (≈ 12.7 µg/mL)	IC50 [20]: 59.4 µM
COc1ccccc1NC(=O)CSc1nc2ccccc2n1C(=O)c1ccccc1 [Compound 17, 2-(1-Benzoyl-1H-benzo[d]imidazol-2-ylthio)-N-(2-methoxyphenyl)acetamide]	30 µM (≈ 12.5 µg/mL)	30 µM (≈ 12.5 µg/mL)	12.5 µg/mL (≈ 29.9 µM)	–	30 µM (≈ 12.5 µg/mL)	> 20 mm	30 µM (≈ 12.5 µg/mL)	30 µM (≈ 12.5 µg/mL)	> 50 µg/mL	50 µg/mL (≈ 120 µM)	43.5%	25 µg/mL (≈ 59.9 µM)	> 50 µg/mL	50 µg/mL (≈ 120 µM)	> 50 µg/mL	> 50 µg/mL	> 50 µg/mL	30 µM (≈ 12.5 µg/mL)	3.17 mg/kg	15 µM (≈ 6.26 µg/mL)	–
O=C(CSc1nc2ccccc2n1C(=O)c1ccccc1)Nc1cccc([N+](=O)[O-])c1 [Compound 10, 2-(1-Benzoyl-1H-benzo[d]imidazol-2-ylthio)-N-(3-nitrophenyl)acetamide]	29 µM (≈ 12.5 µg/mL)	29 µM (≈ 12.5 µg/mL)	12.5 µg/mL (≈ 28.9 µM)	78.6 µM	29 µM (≈ 12.5 µg/mL)	> 20 mm	29 µM (≈ 12.5 µg/mL)	29 µM (≈ 12.5 µg/mL)	> 50 µg/mL	> 50 µg/mL	61.2%	25 µg/mL (≈ 57.8 µM)	> 50 µg/mL	50 µg/mL (≈ 116 µM)	50 µg/mL (≈ 116 µM)	50 µg/mL (≈ 116 µM)	> 50 µg/mL	29 µM (≈ 12.5 µg/mL)	1.83 mg/kg	15 µM (≈ 6.49 µg/mL)	IC50 [20]: 5.8 µM
O=C(CSc1nc2ccccc2n1C(=O)c1ccccc1)Nc1cc(Cl)ccc1Cl [Compound 6, 2-(1-Benzoyl-1H-benzo[d]imidazol-2-ylthio)-N-(2,5-dichlorophenyl)acetamide]	27 µM (≈ 12.3 µg/mL)	27 µM (≈ 12.3 µg/mL)	12.5 µg/mL (≈ 27.4 µM)	89.8 µM	27 µM (≈ 12.3 µg/mL)	> 20 mm	27 µM (≈ 12.3 µg/mL)	27 µM (≈ 12.3 µg/mL)	> 50 µg/mL	50 µg/mL (≈ 110 µM)	56.8%	25 µg/mL (≈ 54.8 µM)	> 50 µg/mL	> 50 µg/mL	> 50 µg/mL	25 µg/mL (≈ 54.8 µM)	> 50 µg/mL	27 µM (≈ 12.3 µg/mL)	1.86 mg/kg	14 µM (≈ 6.39 µg/mL)	IC50 [20]: 83.3 µM
